# Test results from patent US20220378773A1, “METHODS FOR TREATING LEUKEMIA AND USE OF A LEUKEMIC STEM CELL SIGNATURE TO PREDICT CLINICAL SENSITIVITY TO THERAPIES” (CELGENE CORPORATION, priority 2019, published 2022).
# “Also recorded” adds a separate entry of the source.
# Tests used:
# [1] = test system: AML graft (CD34, CD15, CD14, CD11b); assay: Cell surface marker phenotype of AML graft after treatment; type: in vivo, NOD/SCID mice
# Source text: After treatment finished, cells were harvested from both injected right femur (RF) and non-injected bone marrow (BM, including left femur, 2 tibias), and stained with human antibodies to assess the engraftment levels of AML. Antibodies used for staining included: Mouse anti-human CD45-APC, CD15-FITC, CD34-APC7, CD38-PC7 (BD Biosciences, USA), CD14-PE, CD33-PC5 (Beckman Coulter, USA), CD19-V450, CD19-AF700, CD11b-APC7, CD34-BV421 (BD Biosciences, USA), and propidium iodide (PI; Invitrogen, USA).
# With the observation that Compound D has dramatic effect against AML in mice, the question of whether Compound D targets primitive leukemic cells and induces differentiation was investigated next because AML cells are immature blasts with differentiation and maturation blockage in patients. Samples that were focused on were the samples that still had clear residual leukemia cells in the mice following Compound D treatment. […] The majority of cells harvested from the mice transplanted with patient sample 120093 were CD34+ primitive cells lacking in CD15 expression. […] CD11b is also a myeloid differentiation marker and was increased on patient 150250 grafted cells in parallel with increased expression of another myeloid differentiation marker CD15. […] The changes of CD15, CD14 and CD34 positive populations are summarized in FIGS. 12C-12E and 3 different patterns after Compound D treatment are apparent: increase, decrease, or no change of the populations in AML, graft. The samples with reduction of CD34+ primitive cells and increase of CD15+ and/or CD14+ cells are the samples responding well to Compound D (such as patient samples 110555, 110500, and 120093). […] Secondary transplantation may be performed to determine whether Compound D targeted the LSCs with self-renewal capacity.
# [2] = test system: leukemic stem cells (LSCs); assay: Secondary transplantation without limiting dilution; type: in vivo, NOD/SCID mice
# Experimental: For secondary transplant NOD/SCID mice were sublethally irradiated (275 cGy) and pretreated with anti-CD122 antibody (200 μg/mouse) to deplete residual host natural killer cells. On the day of transplantation, viably frozen cells harvested from the vehicle- or Compound D-treated primary mice were thawed, counted, mouse-cell depleted (Mouse Cell Depletion Kit, Miltenyi Biotec, USA), and transplanted intrafemorally into the pretreated secondary mice at limiting doses described above. For secondary transplant without LDA, thawed cells were not depleted of mouse cells before transplantation. At 12 weeks post secondary transplantation, mice were euthanized, and bone marrow was collected and analyzed.
# To determine if quiescent LSCs are resistant to Compound D, secondary transplantation of AML cells of high responders was performed. High responders were identified as samples in which leukemia cells were almost undetectable in the primary mouse bone marrow following Compound D treatment. If rare quiescent LSCs are maintained in the residual leukemia cells following Compound D dosing, then those quiescent LSCs may become active and repopulate secondary mice after undergoing serial transplantations. Four LSC17 high samples that had AML blasts eradicated by Compound D treatment were selected for secondary transplantation (see Table 9) by injecting total combined bone marrow cells collected from 5 primary mice treated with either vehicle or Compound D into 5 secondary mice. In this way cells collected from one primary mouse were injected into one secondary mouse without any cell dose dilution or losing any residual cells. […] Cells from AML Patient 150238 harvested from vehicle-treated primary mice repopulated only one of 5 secondary mice.
# primary AML graft = assay: Pilot in vivo dose study on primary AML graft, 2 weeks dosing; set-up: species or system NOD/SCID mice
# Experimental: Intrafemoral Transplantation: One day prior to transplantation, NOD/SCID mice were preconditioned by sublethally irradiating (275 cGy) followed by injection with anti-CD122 antibody (200 μg/mouse) to deplete residual host natural killer (NK) cells. On the day of transplantation, viably frozen AML bulk cells (see Section 6.2.1.2) were thawed, counted, and transplanted intrafemorally into the preconditioned mice at a dose of 5×10^6 cells/mouse in a total volume of 30 μL phosphate buffered saline.
# Cells harvested from injected and non-injected bone marrow were stained with mouse anti human antibodies as indicated in Section 6.2.1.3. After staining, washed cells were run on an LSRII flow cytometer (BD, USA) with 10,000 to 20,000 events collected for each sample. Collected data were analyzed by FlowJo software (TreeStar, USA) to assess AML engraftment levels in different tissues as determined by the percentage of human CD45+CD33+ cells.
# A pilot study was first conducted to determine the potential dosage that can be used to target primary AML graft in NOD/SCID mice. Two AML patient samples (AML 110500 and AML 90191) were tested at 1.25 or 2.5 mg/kg Compound D once daily (QD) or twice daily (BID) intraperitoneally for a total of 4 different dose/schedule groups (FIG. 4). Following pretreatment with sublethal irradiation and anti-CD122 antibody, NOD/SCID mice were intrafemorally transplanted with AML cells that were previously collected from patients and viably frozen. Mice were dosed with Compound D for 2 weeks post transplantation starting on Day 21. […] Percentage of cells positive with myeloid cell marker CD15 were also elevated in both RF and BM of 2.5 mg/kg BID Compound D-dosed mice (FIG. 4, bottom left). […] Based on this pilot study, Compound D was dosed at 2.5 mg/kg BID for the rest of the in vivo experiments.
smiles,measurement,setting,value
"O=C1CCC(N2Cc3cc(CNC(=O)C(F)(F)c4ccc(Cl)cc4)ccc3C2=O)C(=O)N1 (stereo not shown) [Compound D, 2-(4-chlorophenyl)-N-((2-(2,6-dioxopiperidin-3-yl)-1-oxoisoindolin-5-yl)methyl)-2,2-difluoroacetamide]",expression of myeloid differentiation marker CD15,[1]; 3 representative samples,clear increased expression
same,CD11b+ leukemia cells,[1]; Patient 130826,decreased CD11b+ leukemia cells
same,expression of monocytic cell marker CD14,[1]; graft of patient 120287,induced expression of monocytic cell marker CD14
same,CD11b on grafted cells,[1]; patient 150250,increased
same,CD14+ cells,[1]; patient sample 100474,only eliminated CD14+ cells
same,CD15 expression,[1]; patient sample 120093,induced CD15 expression
same,CD34+ cell population,[1]; patient sample 120093,reduced CD34+ cell population
same,CD34+ cells in the graft,[1]; patient samples 100348 and 130826,reduced CD34+ cells
same,repopulation of secondary mice,"[2]; AML 0590 and AML 110102, cells from Compound D-treated primary mice",did not repopulate the secondary mice
same,LSC Status in Secondary Mice Injected with Compound D Treated Primary Cells,[2]; Patient 110625,repopulated the bone marrow of one secondary mouse; also recorded: LSC in BM
same,No. mice with LSC engrafted/No. injected mice in the group,"[2]; Patient 110625, cells from Compound D-treated primary mice",1/5 (in BM
same,LSC Status in Secondary Mice Injected with Compound D Treated Primary Cells,[2]; Patient 130311,did not proliferate/repopulate any of the secondary mice; also recorded: not engrafted
same,No. mice with LSC engrafted/No. injected mice in the group,"[2]; Patient 130311, cells from Compound D-treated primary mice",0/4
same,LSC Status in Secondary Mice Injected with Compound D Treated Primary Cells,[2]; Patient 130826,did not proliferate/repopulate any of the secondary mice; also recorded: not engrafted
same,No. mice with LSC engrafted/No. injected mice in the group,"[2]; Patient 130826, cells from Compound D-treated primary mice",0/5
same,LSC Status in Secondary Mice Injected with Compound D Treated Primary Cells,[2]; Patient 150238,did not repopulate any secondary mice; also recorded: no LSC
same,No. mice with LSC engrafted/No. injected mice in the group,"[2]; Patient 150238, cells from Compound D-treated primary mice",0/5
same,grafted cells,primary AML graft; AML 90191,largely not affected
same,CD34+ primitive leukemic cells in RF and BM,"primary AML graft; AML 110500, 2.5 mg/kg BID",decreased the most
same,percentage of CD15 positive cells in RF and BM,"primary AML graft; AML 110500, 2.5 mg/kg BID",elevated
same,AML grafts in RF and BM,"primary AML graft; AML 110500, 2.5 mg/kg QD and BID",significantly decreased
same,AML graft,"primary AML graft; AML 110500, 1.25 or 2.5 mg/kg QD or BID IP, 2 weeks, vs vehicle",reduced AML graft of patient sample AML 110500 cells in a dose-dependent manner
